Measured values as given in patent US20220226335A1, “Non-Peptidic Heterocycle-Containing Compounds for the Treatment of Alzheimer?s Disease” (The Governors of the University of Alberta, priority 2019, published 2022).
Where two headings read alike, the source gives them in different places. Where no end group is shown, it is not given here.

Legend:
neurons = conditions: Jhamandas et al., 2004; 2011; 2012; cited from earlier work
[1] = test system: hippocampus of Alzheimer's disease mice (TgCRND8); conditions: Kimura et al., 2012; 2016; cited from earlier work
Aβ plaques = experiment: Aβ plaque load (FIG. 8); format: in vivo
brain hippocampal slices = experiment: hippocampal long term potentiation (LTP) electrophysiology, slices from wild type mice; set-up: species or system mouse; conditions: for effect on human amylin-induced depression/reduction of LTP: hippocampal slices, Compounds 3 and 23 at 1 μM
From the text: Hippocampal long term potentiation (LTP) electrophysiology experiments: an in vitro cellular surrogate for memory. Brains were quickly removed from mice following decapitation, placed in a cold artificial cerebral spinal fluid (aCSF) on a vibratome chamber and transverse sections cut through the hippocampus. The aCSF contained (in mM) 124 NaCl, 3 KCl, 2.4 CaCl2), 2 MgCl2, 1.25 NaH2PO4, 26 NaHCO3 and 10 D-glucose, and was equilibrated with 95% O2 and 5% CO2. Hippocampal slices ([…]) were maintained in aCSF-filled holding chamber at room temperature for at least 1 hour and individually transferred to the submerged glass bottom recording chamber, which was constantly perfused with aCSF (2 mL/min) at 30° C. Field excitatory postsynaptic potential (fEPSP) was recorded with a metallic (Pt/Ir) electrode (FHC, Bowdoin, Me.) from the stratum radiatum layer of Cornu ammonis 1 region of the hippocampus (CA1) area, and the Schaffer collateral afferents were stimulated with 100-μs test pulses via a bipolar cluster electrode (FHC) (Kimura et al., 2012, Kimura et al. 2016). To evaluate basal synaptic transmission, we applied different stimulation strengths (75 μA to 300 μA in steps of 25 μA) and plotted the amplitudes of presynaptic fiber volleys versus the corresponding fEPSP slopes to compare the slope of input/output (I/O) curves of fEPSP. For long-term potentiation (LTP) experiments, the stimulus strength was set to elicit 40-50% of the maximum fEPSP amplitude and test pulses were delivered to Schaffer collaterals once every 30 seconds. LTP was induced by 3-theta-burst stimulation (3-TBS) protocol (each burst consisted of 4 pulses at 100 Hz with a 200-ms inter-burst interval). Before 3-TBS or drug application, the responses were monitored for at least 10 minutes to ensure a stable baseline of fEPSP. […] Results were from various treatment groups were plotted as histograms with means±standard error (SE). […]

[2] = test system: N2a (mouse) neuronal cells; experiment: MTT cell death assay, N2a neuronal cells; format: cell-based; conditions: 10 μM Aβ1-42 for 24 hours
Procedure: (§1) MTT Cell Death Assay. The N2a (mouse) and SK-N-SH (human) neuronal cells were seeded to 5000 cells/well in a 96-well plate in DMEM medium, 10% FBS and incubated overnight. Cells in culture medium were incubated either with or without the assay compounds and Aβ1-42, 10 μM for 24-48 h. At the end of treatment, 20 μL of 5 mg/mL 3-(4,5-dimethylthiazol-2-yl)-2,5-diphenyltetrazolium bromide (MTT, Sigma) was added to each well and incubated at 37° C. for 3 h. Medium was removed, 100 μL of MTT solvent (isopropanol with 4 mM HCl) was added to each well, and the plates were incubated for 30 min at room temperature on a rotating shaker. Plates were analyzed on a microplate reader at a 562 nm wavelength.
(§2) FIGS. 2A and 2B. In mouse and human neuronal cell lines co-application of Compound 3 blunted human amylin and amyloid beta induced cytotoxicity. Neuronal cell lines N2a and SK-N-HS were treated with increasing concentrations of Compound 3 plus 10 μM Aβ1-42 or 5 μM hAmylin for 48 h.

[3] = test system: hippocampal brain slices from transgenic AD mice (TgCRND8); experiment: hippocampal LTP electrophysiology, slices from transgenic AD mice (TgCRND8); set-up: species or system mouse; conditions: compared with age-matched control/wild type mice
From the text: Hippocampal long term potentiation (LTP) electrophysiology experiments: an in vitro cellular surrogate for memory. Brains were quickly removed from mice following decapitation, placed in a cold artificial cerebral spinal fluid (aCSF) on a vibratome chamber and transverse sections cut through the hippocampus. The aCSF contained (in mM) 124 NaCl, 3 KCl, 2.4 CaCl2), 2 MgCl2, 1.25 NaH2PO4, 26 NaHCO3 and 10 D-glucose, and was equilibrated with 95% O2 and 5% CO2. Hippocampal slices ([…]) were maintained in aCSF-filled holding chamber at room temperature for at least 1 hour and individually transferred to the submerged glass bottom recording chamber, which was constantly perfused with aCSF (2 mL/min) at 30° C. Field excitatory postsynaptic potential (fEPSP) was recorded with a metallic (Pt/Ir) electrode (FHC, Bowdoin, Me.) from the stratum radiatum layer of Cornu ammonis 1 region of the hippocampus (CA1) area, and the Schaffer collateral afferents were stimulated with 100-μs test pulses via a bipolar cluster electrode (FHC) (Kimura et al., 2012, Kimura et al. 2016). […] Before 3-TBS or drug application, the responses were monitored for at least 10 minutes to ensure a stable baseline of fEPSP. […]

[4] = test system: SK-N-SH (human) neuronal cells; experiment: MTT cell death / cytotoxicity assay, SK-N-SH neuronal cells; format: cell-based; conditions: 10 μM Aβ1-42 for 24 hours
Procedure: as §1, §2

amylin receptor = experiment: downstream phosphoERK response; format: cell-based; conditions: among Compounds 22-25
N2a cells = experiment: Live/Dead cell assay; format: cell-based, mouse; conditions: data not shown
Procedure: Live/Dead cell assay. LIVE/DEAD™ Viability/Cytotoxicity Kit from ThermoFisher Scientific (Invitrogen) was used according to the instructions of the manufacturer. Briefly, The N2a cells were cultured in 8 well Lab-Tek chamber slide (ThermoFisher Scientific, Nunc). Cells were incubated either with or without the assay compounds, followed by treatment with Aβ1-42 for 24 h. At the end of treatment, the cells were washed three times with D-PBS, followed added live/dead reagent in D-PBS and culture for 30 min. Then fixed the cells with 4% paraformaldehyde for 10 min. Further washed the cells with PBS three times and sealed with coverslip. View the labeled cells under fluorescence microscope. Fluorescent microscopy images were acquired with an Axioplan-2 fluorescence microscope with AxioVision software (Carl Zeiss Ltd., Toronto, ON, Canada). Live/Dead cells were analyzed with Image J software (Schneider, C. A., Rasband, W. S., Eliceiri, K. W. “NIH Image to ImageJ: 25 years of image analysis”. Nature Methods 2012; 9:671-675).

[5] = molecular target: T1, amylin receptor subtype 3 (AMY3) (Homo sapiens, UniProt O60896+P30988); experiment: cAMP assay in amylin receptor subtype 3 expressing cells (AMY3-HEK), ELISA and in-cell Western; format: cell-based; conditions: for IC50: compound and human amylin applied simultaneously, read-out: IC50 required to block hAmylin induced cAMP increase
T1 construct: expressed in transfected cells
T1 sequence (P30988 25-474): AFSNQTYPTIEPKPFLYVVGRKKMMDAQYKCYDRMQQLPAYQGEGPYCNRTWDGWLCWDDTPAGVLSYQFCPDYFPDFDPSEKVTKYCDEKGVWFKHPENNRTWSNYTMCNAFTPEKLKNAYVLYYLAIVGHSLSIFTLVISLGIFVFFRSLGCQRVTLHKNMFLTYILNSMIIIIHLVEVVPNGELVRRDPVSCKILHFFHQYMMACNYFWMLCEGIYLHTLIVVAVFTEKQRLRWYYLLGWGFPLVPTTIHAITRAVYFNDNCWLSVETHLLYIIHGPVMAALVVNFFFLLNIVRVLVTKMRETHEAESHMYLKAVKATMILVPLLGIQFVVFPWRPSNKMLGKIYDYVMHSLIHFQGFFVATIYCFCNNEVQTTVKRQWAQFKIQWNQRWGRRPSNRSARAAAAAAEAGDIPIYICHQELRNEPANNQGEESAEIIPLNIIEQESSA
T1 sequence (O60896 24-148): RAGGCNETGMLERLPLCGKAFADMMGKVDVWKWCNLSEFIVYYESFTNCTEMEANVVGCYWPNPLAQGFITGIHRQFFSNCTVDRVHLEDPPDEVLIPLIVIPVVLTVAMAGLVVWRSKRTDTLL
Procedure: An initial set of 10 compounds was screened using a cyclic AMP (cyclic adenosinemonophosphate, cAMP) assay in amylin receptor subtype 3 expressing cells.
Cell Cultures. Amylin receptor subtypes (AMY3-HEK cells) stably expressed in human embryonic kidney (HEK293) cell-line were generated and characterized as described in a previous published article from our laboratory (Fu et al., J. Biol. Chem. 2012). The AMY3-HEK cells were grown in a 5% CO2 humidified incubator at 37° C. with DMEM, 10% FBS, and 100 μg/mL Zeocin medium.
Two cAMP detection methods were used to validate the findings.
ELISA (enzyme-linked immunosorbent assay). Cellular cAMP levels were measured using a parameter cyclic AMP assay kit (R&D Systems) according to the manufacturer's instructions. Briefly, AMY3-HEK cells were plated on 24-well plates overnight. These cells were then incubated with or without the assay compounds and hAmylin for 5 min. The cells were lysed with lysis buffer provided in the assay kit. Standard curves were plotted using the cAMP standards provided in the ELISA kits. All samples were analyzed in duplicate. The plate is measured at 450 nm. Data was plotted, and non-linear regression was fitted with four parameters using Prism software (GraphPad Software, La Jolla, Calif.).
In-cell Western blot technique. Intracellular cAMP signaling profiles were also determined using in-cell Western blot technique as previously described (Fu W, et al., J Biol Chem. 2012; 287(22):18820-30). AMY3-HEK cells were seeded at 10,000 cells/well in a 96-well plate (Nalge Nunc Intl., Rochester, N.Y.) in DMEM, 10% FBS, Zeocin medium and cultured overnight. […] For cyclic adenosinemonophosphate (cAMP) quantification, mouse monoclonal anti-cAMP (R&D Systems) was used as a primary antibody, and IRDye 800 goat anti mouse antibody (LI-COR) was used as a secondary antibody, whereas Sapphire700 and DRAQ5 were used for cell number normalization (LI-COR). […]

Compound: AC253: peptide antagonist of the amylin receptor, SEQ ID NO: 1 (Ac-LGRLSQELHRLQTYPRTNTGSNTY)
- neuroprotection against Aβ toxicity (neurons): neuroprotective against Aβ toxicity
- effect on Aβ- or human amylin-induced depression of long-term potentiation [1]: can reverse impairment of Aβ- or human amylin-induced depression of long-term potentiation

Compound: cyclized AC253: cyclized AC253 (CLGRLSQELHRLQTYPRTNTGSNTYC; also: cyclised, mode of ring closure not given here) [reference compound]
- area covered by plaques (Aβ plaques): decreases
- total Aβ plaques (Aβ plaques): decreases

Compound: COC(=O)N[C@H](C(=O)N1CCC[C@H]1c1ncc(-c2ccccc2)[nH]1)C(C)C [AVI9030, methyl N-[(1S)-2-methyl-1-[[(2S)-2-(5-phenyl-1H-imidazol-2-yl)-1-pyrrolidinyl]carbonyl]propyl]carbamate, reference compound]
- effect on human amylin-induced depression/reduction of LTP (brain hippocampal slices): did not block human amylin-induced reduction of LTP

Compound: Cc1nc(C)c(CCC(=O)N2CC(=O)Nc3ccccc32)c(=O)[nH]1 [Compound 23, 4-(3-(2,4-dimethyl-6-oxo-1,6-dihydropyrimidin-5-yl)propanoyl)-3,4-dihydroquinoxalin-2(1H)-one]
- neuroprotection against amyloid beta toxicity [2]: neuroprotective against amyloid beta toxicity
- area covered by plaques (Aβ plaques): decreases
- total Aβ plaques (Aβ plaques): decreases
- effect on chronically depressed LTP in transgenic AD mice slices [3]: restoration of LTP in AD mice to levels comparable to wild type mice
- neuroprotection against amyloid beta toxicity [4]: neuroprotective against amyloid beta toxicity
- effect on human amylin-induced depression/reduction of LTP (brain hippocampal slices): restored the reduction in LTP by nanomolar dose of human amylim (h-Amylin) to control levels
- effect on amyloid beta (Aβ)-induced reduction in LTP (brain hippocampal slices; nanomolar dose of Aβ, compound 1 μM): restored to control levels
- potency rank in downstream phosphoERK response (amylin receptor): most potent of these four analogues
- neuroprotective effects against Aβ toxicity, Live/Dead cell assay (N2a cells): confirmed neuroprotective effects
- IC50 ([5]; 0.1 μM hAmylin): 1 nM
- IC50 ([5]; 1 μM hAmylin): 150 nM
- potency rank in cAMP assay ([5]; among Compounds 22-25): most potent of these four analogues
